Experiments:
[1] = system: MCF7; assay: Cytotoxicity against human MCF7 cells after 48 hrs by sulforhodamine B assay; type: functional; conditions: MCF7, 48 h
[2] = system: HepG2; assay: Cytotoxicity against human HepG2 cells after 48 hrs by sulforhodamine B assay; type: functional; conditions: HepG2, 48 h
[3] = system: AGS; assay: Cytotoxicity against human AGS cells after 48 hrs by sulforhodamine B assay; type: functional
[4] = system: Nucleic Acid; assay: Binding affinity to DNA minor groove region CATGGCCATG assessed as melting temperature at 6 uM by thermal denaturation study; type: nucleic-acid assay
[5] = system: Nucleic Acid; assay: Binding affinity to DNA minor groove region CGCAAATTTGCG assessed as melting temperature at 6 uM by thermal denaturation study; type: nucleic-acid assay
[6] = system: Nucleic Acid; assay: Binding affinity to DNA minor groove region CATGGCCATG assessed as change in melting temperature at 6 uM by thermal denaturation study; type: nucleic-acid assay
[7] = system: Nucleic Acid; assay: Binding affinity to DNA minor groove region CGCAAATTTGCG assessed as change in melting temperature at 6 uM by thermal denaturation study; type: nucleic-acid assay

Compound	GI50 [1]	GI50 [2]	GI50 [3]	Tm [4] [°C]	Tm [5] [°C]	ΔTm [6] [°C]	ΔTm [7] [°C]
COC(=O)Nc1cc(C(=O)Nc2cc(C(=O)NCCc3c[nH]c4ccccc34)n(C)c2)n(C)c1	24.9 µM	21.6 µM	17.7 µM	–	–	–	–
COC(=O)Nc1cc(C(=O)Nc2cc(C(=O)NCCc3ccc(O)c(O)c3)n(C)c2)n(C)c1	> 20 µg/mL	> 20 µg/mL	> 20 µg/mL	–	–	–	–
COC(=O)Nc1cc(C(=O)Nc2cc(C(=O)NC(Cc3c[nH]c4ccccc34)C(=O)O)n(C)c2)n(C)c1 (configuration not stated)	> 20 µg/mL	> 20 µg/mL	> 20 µg/mL	–	–	–	–
Cn1cc(NC(=O)c2cc(NC(=O)CNC(=N)N)cn2C)cc1C(=O)NCCC(=N)N	–	–	–	48	69	0	18
C=CCOC(=O)Nc1cc(C(=O)Nc2cc(C(=O)NCCc3c[nH]c4ccccc34)n(C)c2)n(C)c1	15.4 µM	14.3 µM	1.7 µM	–	–	–	–
Cn1cc(NC(=O)c2cc(NC(=O)OCc3ccccc3)cn2C)cc1C(=O)NCCc1c[nH]c2ccccc12	10.8 µM	5.6 µM	9.3 µM	70	65	23	17
COC(=O)Nc1cc(C(=O)Nc2cc(C(=O)NCCc3ccccc3)n(C)c2)n(C)c1	> 20 µg/mL	> 20 µg/mL	> 20 µg/mL	–	–	–	–
Cn1cc(NC(=O)c2cc(NC(=O)Nc3ccccc3)cn2C)cc1C(=O)NCCc1c[nH]c2ccccc12	19.7 µM	14.3 µM	16.8 µM	45	53	0	6
Cn1cc(NC(=O)c2cc(NC(=O)C(C)(C)C)cn2C)cc1C(=O)NCCc1c[nH]c2ccccc12	17.4 µM	> 40.9 µM	23.5 µM	–	–	–	–
Cn1cc(NC(=O)c2cc(NC(=O)OCC(Cl)(Cl)Cl)cn2C)cc1C(=O)NCCc1c[nH]c2ccccc12	10.3 µM	4 µM	10 µM	68	59	21	11
Cn1cc(NC(=O)c2cc(NC(=O)NCc3ccccc3)cn2C)cc1C(=O)NCCc1c[nH]c2ccccc12	> 20 µg/mL	> 20 µg/mL	> 20 µg/mL	–	–	–	–
COC(=O)Nc1coc(C(=O)Nc2coc(C(=O)NCCc3c[nH]c4ccccc34)c2)c1 [PROXIMICIN C]	20.6 µM	1.8 µM	0.6 µM	–	–	–	–
COC(=O)Nc1cc(C(=O)Nc2cc(C(=O)NCCCC(=O)O)n(C)c2)n(C)c1	> 20 µg/mL	> 20 µg/mL	> 20 µg/mL	–	–	–	–
COC(=O)Nc1cc(C(=O)Nc2cc(C(=O)NCCc3cnc[nH]3)n(C)c2)n(C)c1	> 20 µg/mL	> 20 µg/mL	> 20 µg/mL	–	–	–	–
CC(=O)Nc1cc(C(=O)Nc2cc(C(=O)NCCc3c[nH]c4ccccc34)n(C)c2)n(C)c1	> 20 µg/mL	> 20 µg/mL	> 20 µg/mL	–	–	–	–
COC(=O)Nc1cc(C(=O)Nc2cc(C(=O)NCCc3c[nH]c4ccc(O)cc34)n(C)c2)n(C)c1	> 20 µg/mL	> 20 µg/mL	> 20 µg/mL	–	–	–	–
COC(=O)Nc1cc(C(=O)Nc2cc(C(=O)OCCc3ccccc3)n(C)c2)n(C)c1	13 µM	2 µM	2.8 µM	47	71	0	25
Cn1cc(NC(=O)c2cc(NC(=O)c3cc(NC=O)cn3C)cn2C)cc1C(=O)NCCC(=N)N	–	–	–	45	65	0	16
COC(=O)Nc1coc(C(=O)Nc2coc(C(=O)NCCc3ccc(O)cc3)c2)c1 [PROXIMICIN B]	12.1 µM	23 µM	3.6 µM	–	–	–	–
COC(=O)Nc1cc(C(=O)Nc2cc(C(=O)NCCC(C)C)n(C)c2)n(C)c1	> 20 µg/mL	> 20 µg/mL	> 20 µg/mL	–	–	–	–
COC(=O)Nc1coc(C(=O)Nc2coc(C(N)=O)c2)c1 [PROXIMICIN A]	24.6 µM	2.8 µM	2 µM	–	–	–	–
Cn1cc(NC(=O)c2cc(NC(=O)OCC3c4ccccc4-c4ccccc43)cn2C)cc1C(=O)NCCc1c[nH]c2ccccc12	18.8 µM	4.6 µM	> 31.9 µM	–	–	–	–
COC(=O)Nc1cc(C(=O)Nc2cc(C(=O)O)n(C)c2)n(C)c1	> 20 µg/mL	> 20 µg/mL	> 20 µg/mL	–	–	–	–
